The record followed here is ChEMBL document CHEMBL6120971 (J Med Chem, 2024).

One series deals with Mus musculus. In words: Downregulation of c-MET protein level in BALB/c nude mouse stomach xenografted with human MKN-45 cells at 10 mg/kg, po measured after 48 hrs by Western blot analysis. Format: functional, organism-based. In general terms: A xenograft is tissue or cells of one species grown in another, often human tumour cells in immunodeficient mice.
Series [1] deals with MKN-45. As to the kind of experiment: Upregulation of PDCD4 protein level in human MKN-45 cells at 100 nM incubated for 24 hrs by MS-based quantitative proteomics analysis. It is filed as functional, cell-based.
The target of series [2] is T1, Protein cereblon/Hepatocyte growth factor receptor (Homo sapiens, UniProt P08581+Q96SW2). As to the kind of experiment: PROTAC activity at CRBN/c-MET in human A549 cells assessed as induction of c-MET degradation at 12.5 to 200 nM incubated for 24 hrs by Western blot analysis. Format: cell-based. The following applies: dose 12.5-200 nM. In general terms: Immunoblotting shows a protein as a band on a membrane.
Target sequence in this assay (P08581 25-1390 limits assumed): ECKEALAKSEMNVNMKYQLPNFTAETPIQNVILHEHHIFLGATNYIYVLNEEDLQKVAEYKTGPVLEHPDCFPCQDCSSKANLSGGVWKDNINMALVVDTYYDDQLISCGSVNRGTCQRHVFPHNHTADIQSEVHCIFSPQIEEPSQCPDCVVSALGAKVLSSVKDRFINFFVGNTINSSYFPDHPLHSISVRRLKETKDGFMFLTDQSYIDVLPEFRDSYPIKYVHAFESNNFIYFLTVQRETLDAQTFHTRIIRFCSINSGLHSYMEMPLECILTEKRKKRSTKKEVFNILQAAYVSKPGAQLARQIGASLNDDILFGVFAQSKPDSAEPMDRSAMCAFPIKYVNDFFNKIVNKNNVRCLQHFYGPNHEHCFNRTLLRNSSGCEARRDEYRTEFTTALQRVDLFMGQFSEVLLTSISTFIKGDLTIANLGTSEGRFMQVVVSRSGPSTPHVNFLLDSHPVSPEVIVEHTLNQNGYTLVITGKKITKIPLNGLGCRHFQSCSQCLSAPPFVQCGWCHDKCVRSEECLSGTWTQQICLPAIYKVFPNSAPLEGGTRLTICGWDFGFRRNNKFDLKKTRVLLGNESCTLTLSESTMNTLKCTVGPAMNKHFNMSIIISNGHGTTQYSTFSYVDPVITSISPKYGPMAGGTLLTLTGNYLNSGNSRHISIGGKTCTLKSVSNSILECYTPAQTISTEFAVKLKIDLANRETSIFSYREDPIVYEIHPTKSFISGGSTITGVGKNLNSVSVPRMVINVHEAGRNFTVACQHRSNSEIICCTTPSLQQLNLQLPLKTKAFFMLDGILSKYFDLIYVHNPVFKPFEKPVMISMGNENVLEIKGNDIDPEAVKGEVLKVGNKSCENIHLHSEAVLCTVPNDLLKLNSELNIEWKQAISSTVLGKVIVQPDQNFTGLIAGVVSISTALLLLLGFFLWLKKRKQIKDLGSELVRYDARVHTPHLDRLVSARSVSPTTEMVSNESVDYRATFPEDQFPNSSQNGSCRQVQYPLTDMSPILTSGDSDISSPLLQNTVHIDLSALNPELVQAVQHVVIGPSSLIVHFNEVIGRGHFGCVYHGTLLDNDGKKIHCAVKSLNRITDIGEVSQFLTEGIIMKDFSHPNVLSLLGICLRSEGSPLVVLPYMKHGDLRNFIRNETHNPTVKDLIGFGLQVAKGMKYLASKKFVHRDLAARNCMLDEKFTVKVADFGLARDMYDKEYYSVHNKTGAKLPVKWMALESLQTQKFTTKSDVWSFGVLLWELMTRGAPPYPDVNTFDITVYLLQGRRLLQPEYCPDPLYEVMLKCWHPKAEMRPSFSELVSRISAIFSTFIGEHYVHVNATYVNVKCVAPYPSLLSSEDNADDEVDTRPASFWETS
Target sequence in this assay (Q96SW2 whole entry partner): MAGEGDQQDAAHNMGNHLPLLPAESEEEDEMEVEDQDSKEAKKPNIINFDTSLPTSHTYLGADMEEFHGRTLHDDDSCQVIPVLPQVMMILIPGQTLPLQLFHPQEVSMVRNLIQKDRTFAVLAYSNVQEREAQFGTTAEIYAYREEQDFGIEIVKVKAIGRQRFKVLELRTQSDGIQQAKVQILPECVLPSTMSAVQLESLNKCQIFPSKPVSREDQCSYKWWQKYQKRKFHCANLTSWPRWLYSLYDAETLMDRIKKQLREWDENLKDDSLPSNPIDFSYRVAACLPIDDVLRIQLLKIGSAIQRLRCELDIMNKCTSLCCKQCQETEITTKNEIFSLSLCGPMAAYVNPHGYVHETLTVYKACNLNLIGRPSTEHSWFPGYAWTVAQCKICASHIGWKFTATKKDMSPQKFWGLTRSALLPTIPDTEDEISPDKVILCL

For series [3], the system named is MKN-45. In words: Downregulation of CHCHD2 protein level in human MKN-45 cells at 100 nM incubated for 24 hrs by MS-based quantitative proteomics analysis. Format: functional, cell-based.
In series [4] the target is T1, Protein cereblon/Hepatocyte growth factor receptor. In words: PROTAC activity at CRBN/c-MET in human MKN-45 cells assessed as induction of c-MET degradation incubated for 24 hrs by Western blot analysis. It is filed as cell-based.
Target sequence in this assay (P08581 whole entry): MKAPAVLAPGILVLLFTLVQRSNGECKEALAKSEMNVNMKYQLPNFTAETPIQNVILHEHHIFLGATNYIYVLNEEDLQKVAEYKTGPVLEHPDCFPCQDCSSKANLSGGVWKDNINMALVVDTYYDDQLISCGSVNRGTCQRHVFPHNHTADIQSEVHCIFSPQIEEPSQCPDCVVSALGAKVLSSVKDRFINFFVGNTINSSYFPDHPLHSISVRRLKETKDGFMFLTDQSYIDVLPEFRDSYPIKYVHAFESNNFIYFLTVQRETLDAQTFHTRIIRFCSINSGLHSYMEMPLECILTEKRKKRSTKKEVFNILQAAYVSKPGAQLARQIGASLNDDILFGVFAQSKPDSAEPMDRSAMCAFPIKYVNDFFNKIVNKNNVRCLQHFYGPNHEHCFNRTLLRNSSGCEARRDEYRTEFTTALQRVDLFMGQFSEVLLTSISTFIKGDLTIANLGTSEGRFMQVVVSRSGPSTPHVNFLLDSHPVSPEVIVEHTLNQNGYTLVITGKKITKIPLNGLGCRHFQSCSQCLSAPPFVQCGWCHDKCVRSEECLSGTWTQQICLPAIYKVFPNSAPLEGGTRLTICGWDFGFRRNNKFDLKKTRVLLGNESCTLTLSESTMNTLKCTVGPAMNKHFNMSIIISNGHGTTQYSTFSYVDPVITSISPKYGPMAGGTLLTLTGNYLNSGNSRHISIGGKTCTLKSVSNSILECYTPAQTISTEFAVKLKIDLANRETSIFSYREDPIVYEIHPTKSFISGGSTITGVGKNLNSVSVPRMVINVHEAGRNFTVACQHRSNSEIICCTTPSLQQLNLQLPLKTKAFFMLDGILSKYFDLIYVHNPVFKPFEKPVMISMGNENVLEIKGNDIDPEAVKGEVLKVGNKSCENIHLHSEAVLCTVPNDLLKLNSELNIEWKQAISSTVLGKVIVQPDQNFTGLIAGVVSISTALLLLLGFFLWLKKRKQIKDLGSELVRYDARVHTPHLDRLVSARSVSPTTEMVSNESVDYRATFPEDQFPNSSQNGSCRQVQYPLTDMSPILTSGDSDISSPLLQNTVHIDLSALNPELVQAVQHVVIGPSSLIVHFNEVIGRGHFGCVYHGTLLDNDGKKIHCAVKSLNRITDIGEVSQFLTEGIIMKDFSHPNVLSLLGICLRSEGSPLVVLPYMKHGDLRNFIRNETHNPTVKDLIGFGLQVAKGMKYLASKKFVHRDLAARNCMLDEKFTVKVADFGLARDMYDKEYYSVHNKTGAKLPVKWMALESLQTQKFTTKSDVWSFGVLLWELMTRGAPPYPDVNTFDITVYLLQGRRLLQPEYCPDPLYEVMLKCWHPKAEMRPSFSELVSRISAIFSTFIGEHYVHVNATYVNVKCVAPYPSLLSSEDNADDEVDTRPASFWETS
Target sequence in this assay (Q96SW2 whole entry): as the sequence (Q96SW2 whole entry partner) above
The target is the same in series [5]. In words: PROTAC activity at CRBN/c-MET in human MKN-45 cells assessed as induction of c-MET degradation by measuring maximal efficacy incubated for 24 hrs by Western blot analysis relative to control. Format: cell-based.
Target sequence in this assay (P08581 25-1390 limits assumed): as the sequence (P08581 25-1390 limits assumed) above
Target sequence in this assay (Q96SW2 whole entry partner): as the sequence (Q96SW2 whole entry partner) above
Series [6] is described as follows: Toxicity in BALB/c nude mouse xenografted with human MKN-45 cells assessed as effect on spleen morphology at 10 to 40 mg/kg, po administered once daily for 21 days by H and E staining based analysis. Format: organism-based. The following applies: in vivo, 504 h, dose 10-40 mg/kg, time 21 day.
Series [7] concerns the target T1, Protein cereblon/Hepatocyte growth factor receptor. As to the kind of experiment: PROTAC activity at CRBN/c-MET in human MKN-45 cells assessed as induction of c-MET degradation at 100 to 1000 nM incubated for 24 hrs by Western blot analysis relative to control. Format: cell-based. The following applies: dose 100-1000 nM.
Target sequence in this assay (P08581 25-1390 limits assumed): as the sequence (P08581 25-1390 limits assumed) above
Target sequence in this assay (Q96SW2 whole entry partner): as the sequence (Q96SW2 whole entry partner) above
Series [8] can be described thus: Toxicity in BALB/c nude mouse xenografted with human MKN-45 cells assessed as effect on heart morphology at 10 to 40 mg/kg, po administered once daily for 21 days by H and E staining based analysis. Format: organism-based. The following applies: in vivo, 504 h, dose 10-40 mg/kg, time 21 day.
Series [9] can be described thus: Cmax in male Sprague-Dawley rat at 10 mg/kg, iv measured after 24 hrs by LC-MS/MS analysis. It is filed as ADME, organism-based. The following applies: in vivo.
For series [10], the target named is T1, Protein cereblon/Hepatocyte growth factor receptor. As to the kind of experiment: PROTAC activity at CRBN/c-MET in human MKN-45 cells assessed as induction of c-MET degradation at 100 nM preincubated with MG132 for 2 hrs followed by compound addition and measured after 24 hrs by Western blot analysis. Format: cell-based.
Target sequence in this assay (P08581 25-1390 limits assumed): as the sequence (P08581 25-1390 limits assumed) above
Target sequence in this assay (Q96SW2 whole entry partner): as the sequence (Q96SW2 whole entry partner) above
Series [11] in a line: AUC (0 to infinity) in male Sprague-Dawley rat at 10 mg/kg, po measured after 24 hrs by LC-MS/MS analysis. It is filed as ADME, organism-based. The following applies: in vivo.
The test system of series [12] is MKN-45. In words: Antitumor activity against human MKN-45 cells xenografted in BALB/c nude mouse assessed as reduction in tumor growth at 10 mg/kg, po administered once daily for 21 days. Format: functional, organism-based. The following applies: time 21.0 day.
Series [13] concerns the target T1, Protein cereblon/Hepatocyte growth factor receptor. In words: PROTAC activity at CRBN/c-MET in human MKN-45 cells assessed as induction of c-MET degradation at 6.25 to 100 nM incubated for 24 hrs by Western blot analysis. Format: cell-based. The following applies: dose 6.25-100 nM.
Target sequence in this assay (P08581 25-1390 limits assumed): as the sequence (P08581 25-1390 limits assumed) above
Target sequence in this assay (Q96SW2 whole entry partner): as the sequence (Q96SW2 whole entry partner) above
Series [14] shares this target. In words: PROTAC activity at CRBN/c-MET in human PC-9 cells assessed as induction of c-MET degradation at 3.125 to 50 nM incubated for 24 hrs by Western blot analysis. It is filed as cell-based. The following applies: dose 3.125-50 nM.
Target sequence in this assay (P08581 25-1390 limits assumed): as the sequence (P08581 25-1390 limits assumed) above
Target sequence in this assay (Q96SW2 whole entry partner): as the sequence (Q96SW2 whole entry partner) above
Series [15] deals with MKN-45. As to the kind of experiment: Downregulation of SLC7A1 protein level in human MKN-45 cells at 100 nM incubated for 24 hrs by MS-based quantitative proteomics analysis. It is filed as functional, cell-based.
Series [16] in a line: Toxicity in BALB/c nude mouse xenografted with human MKN-45 cells assessed as effect on liver morphology at 10 to 40 mg/kg, po administered once daily for 21 days by H and E staining based analysis. The following applies: in vivo, 504 h, dose 10-40 mg/kg, time 21 day. Format: organism-based.

Structures are written as SMILES. Calls of active or inactive are those of the source. No cut-off for these calls is given here.

As to `O=C1CCC(N2C(=O)c3ccc(N4CCN(CC5CCN(C(=O)c6ccc(-c7cnc8ncc(Cc9ccc%10ncccc%10c9)n8n7)cc6F)CC5)CC4)cc3C2=O)C(=O)N1` (configuration not stated), the Activity entry with Mus musculus was “Not active; Favorable Tissue Specificity Of Compound Observed”; in [6], “Non-toxic”; in series [7] it was 100%; in series [8], “Non-toxic”; in the series with MKN-45 [12] it was “Active; Significant Effect Observed”; in series [16] it was “Non-toxic”. Also, the outcome (in the series with MKN-45 [1]; in the series on MKN-45 [3]; in series [13]; in series [14]; in the series with MKN-45 [15]) was Active. The result in series [2] and in [10] was inactive. Further, the DC50 in [4] was 6.21 nM. In [5], the Emax amounted to 96.8%. The same compound came in with a Cmax in series [9] of 1650 ng/mL. This compound had a total exposure AUC(0-inf) in series [11] of 411 ng·h/mL.

For orientation: DC50 means the midpoint of the concentration-degradation curve. Broadly, the Cmax is the highest concentration seen after dosing. In general, AUC(0-inf) refers to the area under the concentration-time curve extrapolated to infinity. The low end stands for less exposure, the high end for more exposure.
